Data: publication PMC11990524, “Design and Synthesis of Novel 6-(Substituted phenyl)-[1,3]dioxolo[4′,5′:4,5]benzo[1,2-d]thiazole Compounds as Tyrosinase Inhibitors: In Vitro and In Vivo Insights” (Molecules, 2025)

Experiments:
HaCaT cells = test: Cytotoxicity assay on HaCaT cells (EZ-Cytox); type: cell-based, human; settings: 1, 2, 5, 10, and 20 μM, 24 h
Procedure: In addition to melanocytes, keratinocytes are the primary cells present in the epidermis. […] Each compound was treated at concentrations of 0, 1, 2, 5, 10, and 20 μM for 24 h, and cell viability was measured using the EZ-Cytox solution.
The effect of compounds 5 and 9 on cell viability of HaCaT and B16F10 cells was assessed using an EZ-Cytox solution (EZ-1000®, DoGenBio, Seoul, Republic of Korea). HaCaT (5 × 10^3 cells/well) and B16F10 (1 × 10^3 cells/well) cells were seeded in a 96-well plate, respectively, and cultured for 24 h under the same conditions as the cell culture. Each well was treated with 5 and 9 at 0, 1, 2, and 5 μM for B16F10 cells and 0, 1, 2, 5, 10, and 20 μM for HaCaT cells. The plates were incubated for 72 h for B16F10 cells and 24 h for HaCaT cells under a CO2 incubator. Each well was treated with the EZ-Cytox solution (10 μL), and the plate was left for 2 h under a CO2 incubator. Well optical density was measured at 450 nm to determine cytotoxicity.

mushroom tyrosinase = mushroom tyrosinase (Agaricus bisporus, UniProt C7FF04); test: Kinetic analysis of mushroom tyrosinase (Lineweaver–Burk and Dixon plots); type: biochemical; set-up: purchased Sigma-Aldrich; settings: substrate L-dopa
Procedure: Therefore, the mechanism of inhibition was investigated using mushroom tyrosinase. At various concentrations of L-dopa, the initial dopachrome production rate was investigated at four different concentrations of 5 (0, 20, 40, and 80 μM) and 9 (0, 0.5, 1.0, and 2.0 μM).
The Lineweaver–Burk plot for each compound was re-plotted by plotting the reciprocal of the initial dopachrome production rate vs. the […] to create a Dixon plot for each compound (Figure 3C,D for compounds 5 and 9, respectively). […] The absolute value of the x-coordinate of the merged point represents the inhibition constant (Ki), which indicates the potency of the inhibitor.
Kinetic analysis of mushroom tyrosinase was performed by recording the initial dopachrome formation rate in the presence of compounds 5 and 9. […] The optical density of dopachrome production in each well was recorded at 475 nm at 5 min intervals for 30 min. Compounds were tested at 80, 40, 20, and 0 μM for 5 and at 2, 1.0, 0.5, and 0 μM for 9, respectively. Potting the inverse of the substrate concentration vs. the reciprocal of the initial dopachrome production rate generated Lineweaver–Burk plots.

[1] = ABTS radical scavenging assay; settings: 100 μM
Procedure: The ABTS^+ radical solution was obtained by mixing ABTS and potassium persulfate, an oxidizing reagent, and test samples (1–13 and Trolox [positive control]; final concentration: 100 μM) were added to determine their ABTS^+ radical scavenging ability by measuring the optical density at 732 nm.
To prepare ABTS^•+ stock solution, equal amounts of ABTS (14 mM aqueous solution) and K2S2O8 (4.9 mM aqueous solution) were mixed and stored in the dark at 18 °C for 15 h. The prepared ABTS^•+ solution was diluted in ethanol to adjust the absorbance to 0.7 ± 0.01 at 732 nm. The test samples (Trolox [positive control] and compounds 1–13) were dissolved in a cosolvent of ethanol and DMSO (10:1 [v/v]). The adjusted ABTS^•+ solution (90 μL) and test sample (10 μL) were added to each well of a 96-well plate, and the plate was stored in a dark place at 18 °C for 2 min. The optical density was measured at 732 nm every min for 10 min. The test sample solutions were tested at a final concentration of 100 μM. The percentage of radical scavenging activity was calculated as follows: % Radical scavenging activity = 100 × [(Absc − Abst)/Absc], where Abst and Absc are optical densities of the test sample and control, respectively.

[2] = DPPH radical scavenging assay; settings: 500 μM; 30 min in the dark
Procedure: DPPH radical scavenging activity was determined by mixing the DPPH solution with compounds 1–13, leaving it in the dark at 20 °C for 30 min, and measuring the optical density at 517 nm. Ascorbic acid (AA) was used as a positive control to compare the scavenging activity. All test samples were used at 500 μM.
An aliquot (20 μL) of test sample (compounds 1–13 and ascorbic acid [positive control]; 5 mM) in DMSO and 180 μL DPPH solution (0.2 mM) in methanol were mixed in each well of a 96-well plate. The mixed solution was kept in the dark at 18 °C for 30 min. A VE microplate reader was used to measure the optical density of each well at 517 nm.

Sequence of mushroom tyrosinase (C7FF04 1-392): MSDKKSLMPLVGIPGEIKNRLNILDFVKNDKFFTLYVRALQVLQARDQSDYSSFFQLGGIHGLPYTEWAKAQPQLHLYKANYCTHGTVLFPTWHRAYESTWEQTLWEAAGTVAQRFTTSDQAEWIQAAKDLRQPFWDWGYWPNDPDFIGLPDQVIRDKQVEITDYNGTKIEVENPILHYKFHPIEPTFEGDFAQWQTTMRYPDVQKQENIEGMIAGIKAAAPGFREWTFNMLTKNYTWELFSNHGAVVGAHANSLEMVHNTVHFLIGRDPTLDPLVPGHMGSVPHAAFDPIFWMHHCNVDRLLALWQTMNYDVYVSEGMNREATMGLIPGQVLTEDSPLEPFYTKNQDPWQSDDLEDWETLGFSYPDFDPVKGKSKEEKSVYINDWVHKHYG

Question: Which results are given for `Oc1ccc(-c2nc3cc4c(cc3s2)OCO4)c(O)c1` [Compound 9, 4-([1,3]Dioxolo[4′,5′:4,5]benzo[1,2-d]thiazol-6-yl)benzene-1,3-diol]?
Answer: cytotoxicity (cell viability) (HaCaT cells): None of the compounds revealed significant cytotoxicity up to 20 μM; Ki (mushroom tyrosinase; Dixon plot, read-out: inhibition constant (Ki)): 380 nM; mechanism of inhibition (mushroom tyrosinase; Lineweaver–Burk plot): competitive inhibitors; ABTS^+ radical scavenging activity (inhibition rate) [1]: 96%; DPPH radical scavenging (inhibition) [2]: 85%
